Measurements reported in ChEMBL document CHEMBL5523669, “Sialyl LewisX glycomimetics bearing an extended anionic chain targeting E- and P- selectin binding sites” (Bioorg Med Chem, 2024).
The source made the active and inactive calls. No cut-off for these calls is given here.

Assays:
P-selectin = target: T1, P-selectin (Homo sapiens, UniProt P16109); assay: Antagonist activity at recombinant human P-selectin assessed as inhibition of P-selection binding to homodimer human PSGL-1-Fc interaction measured after 30 mins by surface plasmon resonance (SPR) spectroscopy
T1 sequence (P16109 whole entry): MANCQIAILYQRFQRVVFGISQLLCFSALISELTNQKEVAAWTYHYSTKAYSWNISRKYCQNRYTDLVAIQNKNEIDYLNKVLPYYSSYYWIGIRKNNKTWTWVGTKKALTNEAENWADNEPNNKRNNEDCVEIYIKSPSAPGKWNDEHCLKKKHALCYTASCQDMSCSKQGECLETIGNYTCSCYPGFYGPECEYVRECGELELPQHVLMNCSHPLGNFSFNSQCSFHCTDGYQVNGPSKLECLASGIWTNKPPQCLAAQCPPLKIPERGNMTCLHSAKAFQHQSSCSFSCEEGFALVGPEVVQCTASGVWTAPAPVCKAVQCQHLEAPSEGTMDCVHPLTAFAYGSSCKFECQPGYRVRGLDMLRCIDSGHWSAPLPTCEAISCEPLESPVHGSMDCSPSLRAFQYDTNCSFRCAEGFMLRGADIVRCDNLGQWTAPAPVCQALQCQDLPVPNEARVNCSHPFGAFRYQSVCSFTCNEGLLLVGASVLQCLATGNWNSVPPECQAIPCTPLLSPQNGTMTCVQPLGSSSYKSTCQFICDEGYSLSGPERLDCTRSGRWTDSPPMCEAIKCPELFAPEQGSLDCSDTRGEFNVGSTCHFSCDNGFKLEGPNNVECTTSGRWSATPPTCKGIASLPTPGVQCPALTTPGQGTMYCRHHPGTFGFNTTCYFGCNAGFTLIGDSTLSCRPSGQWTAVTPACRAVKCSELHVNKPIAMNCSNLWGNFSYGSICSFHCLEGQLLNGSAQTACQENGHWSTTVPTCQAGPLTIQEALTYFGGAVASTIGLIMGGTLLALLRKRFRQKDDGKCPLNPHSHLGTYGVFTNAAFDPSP

HL-60 = assay: Reduction in human HL-60 cell adhesion in E-Selectin Fc coated plates measured after 1 hr incubation by Cell-selectin adhesion assay; type: cell-based; conditions: filed as antagonist, dose 0.1-500 µM
[1] = target: T2, E-selectin (Homo sapiens) (UniProt P16581); assay: Reduction in human HL-60 cell adhesion in E-Selectin Fc coated plates at 0.1 to 500 uM measured after 1 hr incubation by Cell-selectin adhesion assay; type: cell-based; conditions: filed as antagonist, dose 0.1-500 µM
T2 sequence (whole entry): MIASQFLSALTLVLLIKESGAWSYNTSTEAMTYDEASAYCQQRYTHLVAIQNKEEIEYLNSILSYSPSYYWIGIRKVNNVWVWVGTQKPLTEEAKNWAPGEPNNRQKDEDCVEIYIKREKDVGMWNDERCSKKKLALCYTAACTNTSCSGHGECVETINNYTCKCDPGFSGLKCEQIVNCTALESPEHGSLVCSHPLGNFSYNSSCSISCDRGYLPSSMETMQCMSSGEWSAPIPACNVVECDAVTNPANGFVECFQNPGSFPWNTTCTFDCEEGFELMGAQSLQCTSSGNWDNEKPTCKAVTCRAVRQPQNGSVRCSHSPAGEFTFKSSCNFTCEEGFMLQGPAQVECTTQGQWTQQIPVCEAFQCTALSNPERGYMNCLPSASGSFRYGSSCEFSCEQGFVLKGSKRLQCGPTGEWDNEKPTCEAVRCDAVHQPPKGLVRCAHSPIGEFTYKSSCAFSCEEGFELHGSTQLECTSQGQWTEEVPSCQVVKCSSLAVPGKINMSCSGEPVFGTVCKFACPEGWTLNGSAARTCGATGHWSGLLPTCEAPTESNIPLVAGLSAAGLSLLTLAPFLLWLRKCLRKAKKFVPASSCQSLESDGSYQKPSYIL

| IC50 (P-selectin) [µM] | Activity [1] | Compound | Activity (HL-60) |
| --- | --- | --- | --- |
| 162 | – | CC(C)OC(=O)[C@H](O[C@@H]1O[C@@H](C)[C@@H](O)[C@@H](O)[C@@H]1O)[C@@H](O[C@@H]1O[C@H](CO)[C@H](O)[C@H](O[C@H](Cc2ccccc2)C(=O)O)[C@H]1OC(=O)c1ccccc1)C(=O)OC(C)C | – |
| – | Active | CC(=O)N[C@H]1[C@H]([C@H](O)[C@H](O)CO)O[C@@](O[C@H]2[C@@H](O)[C@@H](CO)O[C@@H](O[C@@H]([C@H](O[C@@H]3O[C@@H](C)[C@@H](O)[C@@H](O)[C@@H]3O)[C@H](C=O)NC(C)=O)[C@H](O)CO)[C@@H]2O)(C(=O)O)C[C@@H]1O | Dose-Dependent Effect |
| 290 | Active | CC(C)OC(=O)[C@H](O[C@@H]1O[C@H](CO)[C@H](OC(=O)c2ccccc2)[C@H](O[C@H](Cc2ccccc2)C(=O)O)[C@H]1OC(=O)c1ccccc1)[C@@H](O[C@@H]1O[C@@H](C)[C@@H](O)[C@@H](O)[C@@H]1O)C(=O)O[C@@H](C)CCCn1cc(CCCCC(=O)Nc2ccc(OP(=O)(O)O)cc2)nn1 | – |
